pEC50: −log10 of the molar value. Where two headings read alike, the source gives them in different places. Numbered stars: 1 amine (or outer) side, 2 acyl side, 3 side chain; on linkers, the order of the positions; unused ones are H or OH. Square brackets hold non-standard residues; d marks the D form. Side chains are listed from the residue outwards. Peptide text beside a SMILES is read from it. * marks the point of attachment. C20 diacid = O=C(O)CCCCCCCCCCCCCCCCCCC(=O)*; γGlu = O=C(O)[C@H](CCC(=O)[*:2])N[*:1]; AEEA = NCCOCCOCC(=O)O; Aib = CC(C)(N)C(=O)O

From US20260201008A1, “SECRETIN-DERIVED GLP1R SELECTIVE AGONISTS” (GUBRA A/S, priority 2023, published 2026) come the findings set out here.

Data set [1] is described as follows: Turbidity of crude library peptides (absorbance at 600 nm). The settings on record: Physical stability of peptides. Format: physicochemical. The method, then:
(§1) Peptides were dissolved in buffers (50 mM sodium acetate at pH 4.0, or 50 mM sodium phosphate at pH 7.0) to 267 μM and incubated for 1-2 hours at room temperature. The samples were then divided into two replicates of 80 μl in a black 384 well plate (μ-clear, Greiner Bio-One) and mixed with Thioflavin T (ThT) to a final concentration of 4 μM. The plate was centrifuged for 2 min at 2000 rpm to remove air bubbles, sealed, and placed in a plate reader (CLARIOstar, BMG). Firstly, turbidity of the samples was measured as the absorbance at 600 nm. Secondly, the plate reader temperature was set to 40° C. and the fluorescence was measured every 10 min for 72 hours by exciting the ThT at 450 nm and measuring the emission at 480 nm. Samples were stressed by shaking the plate at 700 rpm (linear) for five minutes before every measurement, and fibril formation was determined as the average emission for each sample.

A short description of data set [2]: Fibril formation of crude library peptides (Thioflavin T). It is filed as physicochemical. Further details: key: average ThT fluorescence emission at 480 nm (ex 450 nm), raw units. The following applies: Physical stability of peptides. On the procedure:
as §1

Data set [3] concerns the target SCTR (Homo sapiens, UniProt P47872). Nature of the data set: hSCTR potency, cAMP accumulation in CHO-K1 cells stably overexpressing hSCTR. Format: cell-based. Also noted: alternatively Euroscreen ES-712-AF; FAST-0161L; host or cells: CHO-K1. The following applies: for EC50: cAMP accumulation, CHO-K1 cells overexpressing hSCTR, read-out: pEC50 hSCTR (converted). The procedure, abridged:
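Thawed CHO-K1 cells carrying stable hSCTR are plated into casein/IBMX buffer (0.05%, 0.5 mM), dosed immediately for 30 min at room temperature, then cAMP is detected by TR-FRET. Purified peptides run as 11 three-fold dilutions in duplicate, and curves are fitted with variable slope.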
For orientation: Changes in cAMP serve as a functional read-out for many G protein-coupled receptors.

Data set [4] addresses GLP1R (Homo sapiens, UniProt P43220). Put plainly: hGLP1R potency, cAMP accumulation in CHO-K1 cells stably overexpressing hGLP1R. It is filed as cell-based. Also noted: host or cells: CHO-K1. The following applies: for Selectivity: SCTR EC50/GLP1R EC50 ratio; for EC50: cAMP accumulation, CHO-K1 cells overexpressing hGLP1R, read-out: pEC50 hGLPR1 (converted). The method, boiled down:
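2000 cells/well, DPBS + 0.05% casein + 0.5 mM IBMX; 30 min RT stimulation; HTRF cAMP detection after 1 h. Purified: 3-fold ×11, n=2; crude: 10-fold ×5, n=1. EC50 by variable-slope fit.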

Chain of GLP1R (P43220 24-463): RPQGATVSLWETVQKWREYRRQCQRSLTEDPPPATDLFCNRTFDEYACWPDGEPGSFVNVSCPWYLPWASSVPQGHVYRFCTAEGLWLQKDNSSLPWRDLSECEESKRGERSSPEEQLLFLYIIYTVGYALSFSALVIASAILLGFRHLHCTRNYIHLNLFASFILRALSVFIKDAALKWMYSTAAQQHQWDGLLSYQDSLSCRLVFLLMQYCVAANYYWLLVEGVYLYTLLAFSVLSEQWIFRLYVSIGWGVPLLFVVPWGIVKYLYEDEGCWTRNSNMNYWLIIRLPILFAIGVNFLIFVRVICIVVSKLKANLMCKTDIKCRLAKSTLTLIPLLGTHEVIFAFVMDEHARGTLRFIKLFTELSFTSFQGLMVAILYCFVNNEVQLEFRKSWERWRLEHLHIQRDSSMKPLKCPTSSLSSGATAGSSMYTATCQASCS
Chain of SCTR (P47872 23-440): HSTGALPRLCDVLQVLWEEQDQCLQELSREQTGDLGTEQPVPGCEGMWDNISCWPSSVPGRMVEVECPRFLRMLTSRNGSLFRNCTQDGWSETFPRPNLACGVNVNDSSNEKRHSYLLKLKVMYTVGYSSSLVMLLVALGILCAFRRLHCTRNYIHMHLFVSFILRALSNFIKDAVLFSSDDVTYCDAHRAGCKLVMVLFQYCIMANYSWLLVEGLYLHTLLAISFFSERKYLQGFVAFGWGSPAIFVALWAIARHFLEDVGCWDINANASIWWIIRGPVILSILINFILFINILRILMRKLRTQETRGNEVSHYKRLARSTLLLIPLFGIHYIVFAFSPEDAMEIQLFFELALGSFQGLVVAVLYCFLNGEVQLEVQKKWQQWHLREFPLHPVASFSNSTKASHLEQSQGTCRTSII

As to `CC(C)C[C@H](NC(=O)[C@H](CCC(=O)O)NC(=O)[C@H](CCCCNC(=O)COCCOCCNC(=O)COCCOCCNC(=O)CC[C@H](NC(=O)CCCCCCCCCCCCCCCCCCC(=O)O)C(=O)O)NC(=O)[C@H](CC(C)C)NC(=O)[C@H](CCCNC(=N)N)NC(=O)[C@H](CO)NC(=O)[C@@H](NC(=O)[C@H](CC(=O)O)NC(=O)[C@H](CO)NC(=O)[C@@H](NC(=O)[C@H](Cc1ccccc1)NC(=O)[C@@H](NC(=O)CNC(=O)[C@H](CCC(=O)O)NC(=O)C(C)(C)NC(=O)[C@@H](N)Cc1c[nH]cn1)[C@@H](C)O)[C@@H](C)O)C(C)C)C(=O)N[C@@H](C)C(=O)N[C@@H](C)C(=O)N[C@@H](CCC(N)=O)C(=O)N[C@@H](CCC(N)=O)C(=O)N[C@@H](CCCNC(=N)N)C(=O)N[C@@H](Cc1ccccc1)C(=O)N[C@@H](CC(C)C)C(=O)N[C@@H](CCC(=O)O)C(=O)N[C@@H](Cc1c[nH]cn1)C(=O)N[C@@H](CC(C)C)C(=O)N[C@H](C(N)=O)C(C)C` [compound 3] (H-H[Aib]EGTFTSDVSRLK([AEEA-AEEA-γGlu-C20 diacid])ELAAQQRFLEHLV-NH2), in data set [1], the “Turbidity (pH 7)” value amounted to 0.08. Also, the Fibril formation in data set [2] was 13795. For the same compound, the EC50 in data set [3] is 79.4 nM. In data set [4], the Selectivity amounted to 4851 and the EC50 is 0.0158 nM.
As usually defined, the pEC50 is −log10 of the EC50, conventionally taken in molar units. Turning to `CC(C)C[C@H](NC(=O)[C@H](Cc1ccccc1)NC(=O)[C@H](CCCNC(=N)N)NC(=O)[C@H](CCC(N)=O)NC(=O)[C@@H](NC(=O)[C@H](C)NC(=O)[C@H](C)NC(=O)[C@@H](NC(=O)[C@H](CCC(=O)O)NC(=O)[C@H](CCCCNC(=O)COCCOCCNC(=O)COCCOCCNC(=O)CC[C@H](NC(=O)CCCCCCCCCCCCCCCCCCC(=O)O)C(=O)O)NC(=O)[C@H](CC(C)C)NC(=O)[C@H](Cc1ccc(O)cc1)NC(=O)[C@H](CO)NC(=O)[C@@H](NC(=O)[C@H](CC(=O)O)NC(=O)[C@H](CO)NC(=O)[C@@H](NC(=O)[C@H](Cc1ccccc1)NC(=O)[C@@H](NC(=O)CNC(=O)[C@H](CCC(=O)O)NC(=O)C(C)(C)NC(=O)[C@@H](N)Cc1c[nH]cn1)[C@@H](C)O)[C@@H](C)O)C(C)C)[C@@H](C)O)[C@@H](C)O)C(=O)N[C@@H](CCC(=O)O)C(=O)N[C@@H](Cc1c[nH]cn1)C(=O)N[C@@H](CC(C)C)C(=O)N[C@H](C(N)=O)C(C)C` [compound 4] (H-H[Aib]EGTFTSDVSYLK([AEEA-AEEA-γGlu-C20 diacid])ETAATQRFLEHLV-NH2), the “Turbidity (pH 7)” value in data set [1] was determined as 0.08. The same compound showed a Fibril formation in data set [2] of 32222. Moreover, the negative logarithm of the EC50 (pEC50) in data set [3] is 7.00. Also, in data set [4], the pEC50 is 11.10 and the Selectivity stood at 13928.
With `CC(C)C[C@H](NC(=O)[C@H](Cc1ccccc1)NC(=O)[C@H](CCCNC(=N)N)NC(=O)[C@H](CCC(N)=O)NC(=O)[C@H](CCC(N)=O)NC(=O)[C@H](C)NC(=O)[C@H](C)NC(=O)C(C)(C)NC(=O)[C@H](CCC(=O)O)NC(=O)[C@H](CCCCNC(=O)COCCOCCNC(=O)COCCOCCNC(=O)CC[C@H](NC(=O)CCCCCCCCCCCCCCCCCCC(=O)O)C(=O)O)NC(=O)[C@H](CC(C)C)NC(=O)[C@H](CCC(=O)O)NC(=O)[C@H](CO)NC(=O)[C@@H](NC(=O)[C@H](CC(=O)O)NC(=O)[C@H](CO)NC(=O)[C@@H](NC(=O)[C@H](Cc1ccccc1)NC(=O)[C@@H](NC(=O)CNC(=O)[C@H](CCC(=O)O)NC(=O)C(C)(C)NC(=O)[C@@H](N)Cc1c[nH]cn1)[C@@H](C)O)[C@@H](C)O)C(C)C)C(=O)N[C@@H](CCC(=O)O)C(=O)N[C@@H](Cc1c[nH]cn1)C(=O)N[C@@H](CC(C)C)C(=O)N[C@H](C(N)=O)C(C)C` [compound 5] (H-H[Aib]EGTFTSDVSELK([AEEA-AEEA-γGlu-C20 diacid])E[Aib]AAQQRFLEHLV-NH2), the “Turbidity (pH 7)” value in data set [1] turned out to be 0.09. Also, in data set [2], the Fibril formation was 14563. Moreover, the EC50 in data set [3] is 79.4 nM; in data set [4], 0.0126 nM. For the same compound, the Selectivity in data set [4] was 6907.
In the same order, the values of `CC(C)C[C@H](NC(=O)[C@H](Cc1ccccc1)NC(=O)[C@H](CCCNC(=N)N)NC(=O)[C@H](CCC(N)=O)NC(=O)[C@H](CO)NC(=O)[C@H](C)NC(=O)[C@H](C)NC(=O)[C@H](CCC(=O)O)NC(=O)[C@H](CCC(=O)O)NC(=O)[C@H](CCCCNC(=O)COCCOCCNC(=O)COCCOCCNC(=O)CC[C@H](NC(=O)CCCCCCCCCCCCCCCCCCC(=O)O)C(=O)O)NC(=O)[C@H](CC(C)C)NC(=O)[C@@H](NC(=O)[C@H](CO)NC(=O)[C@@H](NC(=O)[C@H](CC(=O)O)NC(=O)[C@H](CO)NC(=O)[C@@H](NC(=O)[C@H](Cc1ccccc1)NC(=O)[C@@H](NC(=O)CNC(=O)[C@H](CCC(=O)O)NC(=O)C(C)(C)NC(=O)[C@@H](N)Cc1c[nH]cn1)[C@@H](C)O)[C@@H](C)O)C(C)C)[C@@H](C)O)C(=O)N[C@@H](CCC(=O)O)C(=O)N[C@@H](Cc1c[nH]cn1)C(=O)N[C@@H](CC(C)C)C(=O)N[C@H](C(N)=O)C(C)C` [compound 6] (H-H[Aib]EGTFTSDVSTLK([AEEA-AEEA-γGlu-C20 diacid])EEAASQRFLEHLV-NH2) are 0.09, 6489, 316 nM, 0.0316 nM and 11820.
In the same order, the values of `CC(C)C[C@H](NC(=O)[C@H](Cc1ccccc1)NC(=O)[C@H](CCCNC(=N)N)NC(=O)[C@H](CCC(N)=O)NC(=O)C(C)(C)NC(=O)[C@H](C)NC(=O)[C@H](C)NC(=O)C(C)(C)NC(=O)[C@H](CCC(=O)O)NC(=O)[C@H](CCCCNC(=O)COCCOCCNC(=O)COCCOCCNC(=O)CC[C@H](NC(=O)CCCCCCCCCCCCCCCCCCC(=O)O)C(=O)O)NC(=O)[C@H](CC(C)C)NC(=O)[C@H](CCC(=O)O)NC(=O)[C@H](CO)NC(=O)[C@@H](NC(=O)[C@H](CC(=O)O)NC(=O)[C@H](CO)NC(=O)[C@@H](NC(=O)[C@H](Cc1ccccc1)NC(=O)[C@@H](NC(=O)CNC(=O)[C@H](CCC(=O)O)NC(=O)C(C)(C)NC(=O)[C@@H](N)Cc1c[nH]cn1)[C@@H](C)O)[C@@H](C)O)C(C)C)C(=O)N[C@@H](CCC(=O)O)C(=O)N[C@@H](Cc1c[nH]cn1)C(=O)N[C@@H](CC(C)C)C(=O)N[C@H](C(N)=O)C(C)C` [compound 7] (H-H[Aib]EGTFTSDVSELK([AEEA-AEEA-γGlu-C20 diacid])E[Aib]AA[Aib]QRFLEHLV-NH2) are 0.08, 10801, 1000 nM, 0.0631 nM and 18030.
